Experimental data taken from PubChem BioAssay AID270 (DTP/NCI, 2004).
Where “and” joins values, the source holds several entries; their conditions need not be identical. Identical values can stand only once. Records with an inconclusive call do not appear.

Test system: BDF1 mice, s.c. Lewis lung carcinoma, T/C %
Assay: NCI In Vivo Anticancer Drug Screen. Data for tumor model Lewis Lung Carcinoma (subcutaneous) in B6D2F1 (BDF1) mice
In short: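 Tumor-bearing mice were treated with test compound, and either survival or tumor size was recorded. Values are the treated-group measurement divided by that of the vehicle-treated control group.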

[1] = endpoint: median survival time, dose: 18.75 mg/kg/injection, schedule: Q01DX009 (ip), vehicle: Klucel (hydroxypropylcellulose) (HPC), higher = longer survival

C1=CC2(OCCO2)C2CC=CC3(OCCO3)C2C1 (stereo unspecified)
T/C (endpoint: median survival time, dose: 6.25 mg/kg/injection, schedule: Q01DX009 (ip), vehicle: Klucel (hydroxypropylcellulose) (HPC), higher = longer survival): 88 % of control
T/C (endpoint: median survival time, dose: 12.5 mg/kg/injection, schedule: Q01DX009 (ip), vehicle: Klucel (hydroxypropylcellulose) (HPC), higher = longer survival): 100 % of control
T/C (endpoint: median survival time, dose: 25.0 mg/kg/injection, schedule: Q01DX009 (ip), vehicle: Klucel (hydroxypropylcellulose) (HPC), higher = longer survival): 95 % of control and 97 % of control
T/C (endpoint: median survival time, dose: 50.0 mg/kg/injection, schedule: Q01DX009 (ip), vehicle: Klucel (hydroxypropylcellulose) (HPC), higher = longer survival): 93 % of control
T/C (endpoint: median survival time, dose: 100.0 mg/kg/injection, schedule: Q01DX009 (ip), vehicle: Klucel (hydroxypropylcellulose) (HPC), higher = longer survival): 106 % of control

CCCOP(=S)(N1CC1)N1CC1
T/C [1]: 112 % of control
T/C (endpoint: median survival time, dose: 37.5 mg/kg/injection, schedule: Q01DX009 (ip), vehicle: Klucel (hydroxypropylcellulose) (HPC), higher = longer survival): 95 % of control
T/C (endpoint: median survival time, dose: 75.0 mg/kg/injection, schedule: Q01DX009 (ip), vehicle: Klucel (hydroxypropylcellulose) (HPC), higher = longer survival): 94 % of control
T/C (endpoint: median survival time, dose: 100.0 mg/kg/injection, schedule: Q01DX009 (ip), vehicle: saline, higher = longer survival): 116 % of control

CC(=O)CC(=O)Nc1ccc(Cl)cc1
T/C (endpoint: mean tumor weight, dose: 111.0 mg/kg/injection, schedule: Q01DX011 (ip), vehicle: other, higher = larger tumour): 151 % of control
T/C (endpoint: mean tumor weight, dose: 166.0 mg/kg/injection, schedule: Q01DX011 (ip), vehicle: other, higher = larger tumour): 156 % of control
T/C (endpoint: mean tumor weight, dose: 250.0 mg/kg/injection, schedule: Q01DX011 (ip), vehicle: other, higher = larger tumour): 121 % of control
T/C (endpoint: mean tumor weight, dose: 500.0 mg/kg/injection, schedule: Q01DX011 (ip), vehicle: other, higher = larger tumour): 64 % of control

CC(=O)CC(C)(C)N
T/C (endpoint: mean tumor weight, dose: 15.0 mg/kg/injection, schedule: Q01DX011 (ip), vehicle: saline, higher = larger tumour): 118 % of control
T/C (endpoint: mean tumor weight, dose: 33.0 mg/kg/injection, schedule: Q01DX011 (ip), vehicle: saline, higher = larger tumour): 101 % of control
T/C (endpoint: mean tumor weight, dose: 50.0 mg/kg/injection, schedule: Q01DX011 (ip), vehicle: methylcellulose (MC), higher = larger tumour): 50 % of control
T/C (endpoint: mean tumor weight, dose: 50.0 mg/kg/injection, schedule: Q01DX011 (ip), vehicle: saline, higher = larger tumour): 120 % of control
T/C (endpoint: mean tumor weight, dose: 75.0 mg/kg/injection, schedule: Q01DX011 (ip), vehicle: methylcellulose (MC), higher = larger tumour): 91 % of control
T/C (endpoint: mean tumor weight, dose: 100.0 mg/kg/injection, schedule: Q01DX011 (ip), vehicle: methylcellulose (MC), higher = larger tumour): 30 % of control

CC(=O)[C@@]1(O)CC[C@H]2[C@@H]3C[C@H](C)C4=CC(=O)C=C[C@]4(C)[C@@]3(F)[C@@H](O)C[C@@]21C
T/C (endpoint: mean tumor weight, dose: 25.0 mg/kg/injection, schedule: Q01DX011 (sc), vehicle: steriod suspending solution, higher = larger tumour): 28 % of control
T/C (endpoint: mean tumor weight, dose: 50.0 mg/kg/injection, schedule: Q01DX011 (sc), vehicle: steriod suspending solution, higher = larger tumour): 18 % of control

CN(/N=N/N(C)c1ccccc1)c1ccccc1
T/C (endpoint: mean tumor weight, dose: 15.6 mg/kg/injection, schedule: Q01DX011 (ip), vehicle: carboxymethylcellulose (CMC), higher = larger tumour): 77 % of control
T/C (endpoint: mean tumor weight, dose: 31.3 mg/kg/injection, schedule: Q01DX011 (ip), vehicle: carboxymethylcellulose (CMC), higher = larger tumour): 66 % of control
T/C (endpoint: mean tumor weight, dose: 62.5 mg/kg/injection, schedule: Q01DX011 (ip), vehicle: carboxymethylcellulose (CMC), higher = larger tumour): 52 % of control
T/C (endpoint: mean tumor weight, dose: 125.0 mg/kg/injection, schedule: Q01DX011 (ip), vehicle: carboxymethylcellulose (CMC), higher = larger tumour): 48 % of control

Cc1cc(O)c(C(C)C)cc1S(=O)(=O)O (tested in a mixture with another compound)
T/C (endpoint: mean tumor weight, dose: 25.0 mg/kg/injection, schedule: Q01DX011 (ip), vehicle: other, higher = larger tumour): 95 % of control
T/C (endpoint: mean tumor weight, dose: 50.0 mg/kg/injection, schedule: Q01DX011 (ip), vehicle: other, higher = larger tumour): 105 % of control
T/C (endpoint: mean tumor weight, dose: 100.0 mg/kg/injection, schedule: Q01DX011 (ip), vehicle: other, higher = larger tumour): 114 % of control
T/C (endpoint: mean tumor weight, dose: 200.0 mg/kg/injection, schedule: Q01DX011 (ip), vehicle: other, higher = larger tumour): 98 % of control

O=S(=O)(Cl)c1cc(Cl)c(Cl)cc1Cl
T/C (endpoint: mean tumor weight, dose: 133.0 mg/kg/injection, schedule: Q01DX011 (ip), vehicle: other, higher = larger tumour): 71 % of control
T/C (endpoint: mean tumor weight, dose: 300.0 mg/kg/injection, schedule: Q01DX011 (ip), vehicle: other, higher = larger tumour): 83 % of control
T/C (endpoint: mean tumor weight, dose: 450.0 mg/kg/injection, schedule: Q01DX011 (ip), vehicle: other, higher = larger tumour): 28 % of control and 41 % of control
T/C (endpoint: mean tumor weight, dose: 600.0 mg/kg/injection, schedule: Q01DX011 (ip), vehicle: other, higher = larger tumour): 75 % of control

CN(CC(=O)O)C(=N)N
T/C (endpoint: mean tumor weight, dose: 250.0 mg/kg/injection, schedule: Q01DX011 (ip), vehicle: saline, higher = larger tumour): 57 % of control
T/C (endpoint: mean tumor weight, dose: 500.0 mg/kg/injection, schedule: Q01DX011 (ip), vehicle: saline, higher = larger tumour): 53 % of control
T/C (endpoint: mean tumor weight, dose: 1000.0 mg/kg/injection, schedule: Q01DX011 (ip), vehicle: saline, higher = larger tumour): 67 % of control

O=C(N/N=C/c1ccc(O)cc1O)c1cccnc1
T/C (endpoint: median survival time, dose: 6.25 mg/kg/injection, schedule: Q01DX009 (ip), vehicle: olive oil, sesame oil, peanut oil, higher = longer survival): 91 % of control
T/C (endpoint: median survival time, dose: 25.0 mg/kg/injection, schedule: Q01DX009 (ip), vehicle: olive oil, sesame oil, peanut oil, higher = longer survival): 101 % of control

COC(=O)c1nc(-c2ccc3c(n2)C(=O)C(N)=C(OC)C3=O)c(N)c(-c2ccc(OC)c(OC)c2O)c1C
T/C (endpoint: mean tumor weight, dose: 0.25 mg/kg/injection, schedule: Q01DX011 (ip), vehicle: other, higher = larger tumour): 65 % of control
T/C (endpoint: mean tumor weight, dose: 0.5 mg/kg/injection, schedule: Q01DX011 (ip), vehicle: other, higher = larger tumour): 70 % of control
T/C (endpoint: mean tumor weight, dose: 1.0 mg/kg/injection, schedule: Q01DX011 (ip), vehicle: other, higher = larger tumour): 45 % of control

C[C@H](N)C(=O)N[C@@H]1[C@H]2C(=C(O)C[C@@H](O)[C@@H]2O)C(=O)O[C@@H]1C
T/C (endpoint: mean tumor weight, dose: 300.0 mg/kg/injection, schedule: Q01DX011 (ip), vehicle: saline, higher = larger tumour): 83 % of control
T/C (endpoint: mean tumor weight, dose: 600.0 mg/kg/injection, schedule: Q01DX011 (ip), vehicle: saline, higher = larger tumour): 60 % of control
T/C (endpoint: mean tumor weight, dose: 1200.0 mg/kg/injection, schedule: Q01DX011 (ip), vehicle: saline, higher = larger tumour): 89 % of control

C[C@]12CCC(=O)C=C1CC[C@@H]1[C@@H]2C(=O)C[C@@]2(C)[C@H]1CC[C@]2(O)C(=O)CO
T/C (endpoint: mean tumor weight, dose: 100.0 mg/kg/injection, schedule: Q01DX011 (ip), vehicle: steriod suspending solution, higher = larger tumour): 58 % of control
T/C (endpoint: median survival time, dose: 5.0 mg/kg/injection, schedule: Q02DX009 (ip), vehicle: Klucel (hydroxypropylcellulose) (HPC), higher = longer survival): 102 % of control
T/C (endpoint: median survival time, dose: 10.0 mg/kg/injection, schedule: Q02DX009 (ip), vehicle: Klucel (hydroxypropylcellulose) (HPC), higher = longer survival): 102 % of control
T/C (endpoint: median survival time, dose: 20.0 mg/kg/injection, schedule: Q02DX009 (ip), vehicle: Klucel (hydroxypropylcellulose) (HPC), higher = longer survival): 101 % of control
T/C (endpoint: median survival time, dose: 40.0 mg/kg/injection, schedule: Q02DX009 (ip), vehicle: Klucel (hydroxypropylcellulose) (HPC), higher = longer survival): 97 % of control and 102 % of control

C=C(C)C12CC(C)C34OC5(CCCCCCCC(C)C6C(C)C(OC(=O)c7ccccc7)C(O)(C(O)C7(COC(=O)CCCCCCCCCCCCCCC)OC7C3C1O5)C64)O2 (stereo unspecified)
T/C (endpoint: median survival time, dose: 1.0 micrograms/kg/injection, schedule: Q01DX009 (ip), vehicle: Klucel (hydroxypropylcellulose) (HPC), higher = longer survival): 93 % of control
T/C (endpoint: median survival time, dose: 1.9 micrograms/kg/injection, schedule: Q01DX009 (ip), vehicle: Klucel (hydroxypropylcellulose) (HPC), higher = longer survival): 209 % of control
T/C (endpoint: median survival time, dose: 2.0 micrograms/kg/injection, schedule: Q01DX009 (ip), vehicle: Klucel (hydroxypropylcellulose) (HPC), higher = longer survival): 86 % of control
T/C (endpoint: median survival time, dose: 3.8 micrograms/kg/injection, schedule: Q01DX009 (ip), vehicle: Klucel (hydroxypropylcellulose) (HPC), higher = longer survival): 208 % of control
T/C (endpoint: median survival time, dose: 4.0 micrograms/kg/injection, schedule: Q01DX009 (ip), vehicle: Klucel (hydroxypropylcellulose) (HPC), higher = longer survival): 97 % of control
T/C (endpoint: median survival time, dose: 7.5 micrograms/kg/injection, schedule: Q01DX009 (ip), vehicle: Klucel (hydroxypropylcellulose) (HPC), higher = longer survival): 209 % of control
T/C (endpoint: median survival time, dose: 8.0 micrograms/kg/injection, schedule: Q01DX009 (ip), vehicle: Klucel (hydroxypropylcellulose) (HPC), higher = longer survival): 96 % of control
T/C (endpoint: median survival time, dose: 15.0 micrograms/kg/injection, schedule: Q01DX009 (ip), vehicle: Klucel (hydroxypropylcellulose) (HPC), higher = longer survival): 101 % of control
T/C (endpoint: median survival time, dose: 16.0 micrograms/kg/injection, schedule: Q01DX009 (ip), vehicle: Klucel (hydroxypropylcellulose) (HPC), higher = longer survival): 88 % of control

C[C@@H]1CCC[C@@H](NC(=O)N(CCCl)N=O)C1
T/C (endpoint: median survival time, dose: 4.68 mg/kg/injection, schedule: Q01DX009 (ip), vehicle: Klucel (hydroxypropylcellulose) (HPC), higher = longer survival): 97 % of control
T/C (endpoint: median survival time, dose: 9.37 mg/kg/injection, schedule: Q01DX009 (ip), vehicle: Klucel (hydroxypropylcellulose) (HPC), higher = longer survival): 98 % of control
T/C [1]: 108 % of control

CCOC(=O)C(Br)CC (stereo unspecified)
T/C (endpoint: mean tumor weight, dose: 148.0 mg/kg/injection, schedule: Q01DX011 (ip), vehicle: other, higher = larger tumour): 77 % of control

CN(C)Cc1c[nH]c2ccccc12
T/C (endpoint: mean tumor weight, dose: 26.6 mg/kg/injection, schedule: Q01DX011 (ip), vehicle: carboxymethylcellulose (CMC), higher = larger tumour): 94 % of control
T/C (endpoint: mean tumor weight, dose: 40.0 mg/kg/injection, schedule: Q01DX011 (ip), vehicle: carboxymethylcellulose (CMC), higher = larger tumour): 70 % of control
T/C (endpoint: mean tumor weight, dose: 60.0 mg/kg/injection, schedule: Q01DX011 (ip), vehicle: carboxymethylcellulose (CMC), higher = larger tumour): 62 % of control
T/C (endpoint: mean tumor weight, dose: 90.0 mg/kg/injection, schedule: Q01DX011 (ip), vehicle: carboxymethylcellulose (CMC), higher = larger tumour): 57 % of control
